Test results as given in patent publication US20230143604A1, “QW DOSING OF GIP RECEPTOR AGONIST PEPTIDE COMPOUNDS AND USES THEREOF” (TAKEDA PHARMACEUTICAL COMPANY LIMITED, priority 2020, published 2023).
Starred links: 1 amine or outer side, 2 acyl side, 3 side chain; linkers in the order of their positions; H or OH if unused. Positions of bridges follow the written chain, without caps; N, C: chain ends. Non-standard residues stand in square brackets, D forms with d. Residues, ends and D or L forms follow the SMILES beside them. Groups on a side chain read outwards from the residue. Chains are numbered I, II in the order given. *: point of attachment. C18 diacid = O=C(O)CCCCCCCCCCCCCCCCC(=O)*; γGlu = O=C(O)[C@H](CCC(=O)[*:2])N[*:1]; NMeY = CN[C@@H](Cc1ccc(O)cc1)C(=O)O; AEEA = NCCOCCOCC(=O)O; Aib = CC(C)(N)C(=O)O

Test: physchem
How it was run: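 Solubility at pH 7.4 determined by stepwise addition of 200 mM phosphate buffer in 100 μL increments to 3 mg peptide, mixing briefly each time, until no insoluble material remained, then measured by liquid chromatography.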

[1] = pH 7.4, aqueous buffer, pH 7.4 Phosphate Buffer - Solubility, 200 mM Phosphate buffer pH 7.4
[2] = pH 7.4, solubility in phosphate buffer at pH 7.4, 200 mM phosphate buffer pH 7.4

Compound | solubility (pH 7.4) [mg/mL] | solubility (pH 7.4, aqueous buffer) [mg/mL] | solubility [1] [mg/mL] | solubility [2] [mg/mL]
CC[C@H](C)[C@H](NC(=O)[C@H](CCCCN)NC(=O)[C@H](CC(=O)O)NC(=O)[C@H](CC(C)C)NC(=O)[C@H](C)NC(=O)[C@@H](NC(=O)[C@H](CO)NC(=O)[C@H](Cc1ccc(O)cc1)NC(=O)[C@H](CC(=O)O)NC(=O)[C@H](CO)NC(=O)[C@@H](NC(=O)[C@H](Cc1ccccc1)NC(=O)[C@@H](NC(=O)CNC(=O)[C@H](CCC(=O)O)NC(=O)C(C)(C)NC(=O)[C@H](Cc1ccc(O)cc1)NC)[C@@H](C)O)[C@@H](C)CC)[C@@H](C)CC)C(=O)N[C@@H](C)C(=O)N[C@@H](CCC(N)=O)C(=O)NC(C)(C)C(=O)N[C@@H](CCCCNC(=O)COCCOCCNC(=O)COCCOCCNC(=O)CC[C@H](NC(=O)CC[C@H](NC(=O)CCCCCCCCCCCCCCCCC(=O)O)C(=O)O)C(=O)O)C(=O)N[C@@H](Cc1ccccc1)C(=O)N[C@H](C(=O)N[C@@H](CC(N)=O)C(=O)N[C@@H](Cc1c[nH]c2ccccc12)C(=O)N[C@@H](CC(C)C)C(=O)N[C@@H](CC(C)C)C(=O)N[C@@H](C)C(=O)N[C@@H](CCC(N)=O)C(=O)N[C@@H](CCCNC(=N)N)C(=O)NCC(=O)O)C(C)C [Compound 175] (H-[NMeY][Aib]EGTFISDYSIALDKIAQ[Aib]K([AEEA-AEEA-γGlu-γGlu-C18 diacid])FVNWLLAQRG-OH) | ≥ 15 | ≥ 30 |  | 
I: H-[NMeY][Aib]EGTFISDYSIALDR[Aib]KQ[Aib]DFVNWLLAQSPSSGAPPPS-OH / II: {C18 diacid}-PAPAPGG (amide I:18-II:C) [Compound 102] |  |  | ≥ 60 | ≥ 15
CC[C@H](C)[C@H](NC(=O)[C@H](CO)NC(=O)[C@H](Cc1ccc(O)cc1)NC(=O)[C@H](CC(=O)O)NC(=O)[C@H](CO)NC(=O)[C@@H](NC(=O)[C@H](Cc1ccccc1)NC(=O)[C@@H](NC(=O)CNC(=O)[C@H](CCC(=O)O)NC(=O)C(C)(C)NC(=O)[C@H](Cc1ccc(O)cc1)NC)[C@@H](C)O)[C@@H](C)CC)C(=O)N[C@@H](C)C(=O)N[C@@H](CCCCNC(=O)CNC(=O)CNC(=O)CNC(=O)CNC(=O)CNC(=O)CC[C@H](NC(=O)CC[C@H](NC(=O)CCCCCCCCCCCCCCCCC(=O)O)C(=O)O)C(=O)O)C(=O)N[C@@H](CC(=O)O)C(=O)N[C@@H](CCCNC(=N)N)C(=O)NC(C)(C)C(=O)N[C@@H](C)C(=O)N[C@@H](CCC(N)=O)C(=O)NC(C)(C)C(=O)N[C@@H](CC(N)=O)C(=O)N[C@@H](Cc1ccccc1)C(=O)N[C@H](C(=O)N[C@@H](CC(N)=O)C(=O)N[C@@H](Cc1c[nH]c2ccccc12)C(=O)N[C@@H](CC(C)C)C(=O)N[C@@H](CC(C)C)C(=O)N[C@@H](C)C(=O)N[C@@H](CCC(N)=O)C(=O)N[C@@H](CCCNC(=N)N)C(=O)N1CCC[C@H]1C(=O)N[C@@H](CO)C(=O)N[C@@H](CO)C(=O)NCC(=O)N[C@@H](C)C(=O)N1CCC[C@H]1C(=O)N1CCC[C@H]1C(=O)N1CCC[C@H]1C(=O)N[C@@H](CO)C(N)=O)C(C)C [Compound 34] |  |  | ≥ 30 | ≥ 15
CC[C@H](C)[C@H](NC(=O)[C@H](Cc1ccccc1)NC(=O)[C@@H](NC(=O)CNC(=O)[C@H](CCC(=O)O)NC(=O)C(C)(C)NC(=O)[C@H](Cc1ccc(O)cc1)NC)[C@@H](C)O)C(=O)N[C@@H](CO)C(=O)N[C@@H](CC(=O)O)C(=O)N[C@@H](Cc1ccc(O)cc1)C(=O)N[C@@H](CO)C(=O)N[C@H](C(=O)NC(C)(C)C(=O)N[C@@H](CCCCNC(=O)CNC(=O)CNC(=O)CNC(=O)CNC(=O)CNC(=O)CCCCCCCCCCCCCCCCC(=O)O)C(=O)N[C@@H](CC(=O)O)C(=O)N[C@@H](CCCNC(=N)N)C(=O)NC(C)(C)C(=O)N[C@@H](C)C(=O)N[C@@H](CCC(N)=O)C(=O)NC(C)(C)C(=O)N[C@@H](CC(N)=O)C(=O)N[C@@H](Cc1ccccc1)C(=O)N[C@H](C(=O)N[C@@H](CC(N)=O)C(=O)N[C@@H](Cc1c[nH]c2ccccc12)C(=O)N[C@@H](CC(C)C)C(=O)N[C@@H](CC(C)C)C(=O)N[C@@H](C)C(=O)N[C@@H](CCC(N)=O)C(=O)N[C@@H](CO)C(=O)N1CCC[C@H]1C(=O)N[C@@H](CO)C(=O)N[C@@H](CO)C(=O)NCC(=O)N[C@@H](C)C(=O)N1CCC[C@H]1C(=O)N1CCC[C@H]1C(=O)N1CCC[C@H]1C(=O)N[C@@H](CO)C(N)=O)C(C)C)[C@@H](C)CC [Compound 275] |  |  | < 15 | 
CC[C@H](C)[C@H](NC(=O)[C@H](Cc1ccccc1)NC(=O)[C@@H](NC(=O)CNC(=O)[C@H](CCC(=O)O)NC(=O)C(C)(C)NC(=O)[C@H](Cc1ccc(O)cc1)NC)[C@@H](C)O)C(=O)N[C@@H](CO)C(=O)N[C@@H](CC(=O)O)C(=O)N[C@@H](Cc1ccc(O)cc1)C(=O)N[C@@H](CO)C(=O)N[C@H](C(=O)NC(C)(C)C(=O)N[C@@H](CC(C)C)C(=O)N[C@@H](CC(=O)O)C(=O)N[C@@H](CCCNC(=N)N)C(=O)NC(C)(C)C(=O)N[C@@H](C)C(=O)N[C@@H](C)C(=O)NC(C)(C)C(=O)N[C@@H](CCCCNC(=O)COCCOCCNC(=O)COCCOCCNC(=O)CC[C@H](NC(=O)CC[C@H](NC(=O)CCCCCCCCCCCCCCCCC(=O)O)C(=O)O)C(=O)O)C(=O)N[C@@H](Cc1ccccc1)C(=O)N[C@H](C(=O)N[C@@H](CC(N)=O)C(=O)N[C@@H](Cc1c[nH]c2ccccc12)C(=O)N[C@@H](CC(C)C)C(=O)N[C@@H](CC(C)C)C(=O)N[C@@H](C)C(=O)N[C@@H](CCC(N)=O)C(=O)N[C@@H](CCCNC(=N)N)C(=O)N1CCC[C@H]1C(=O)N[C@@H](CO)C(=O)N[C@@H](CO)C(=O)NCC(=O)N[C@@H](C)C(=O)N1CCC[C@H]1C(=O)N1CCC[C@H]1C(=O)N1CCC[C@H]1C(=O)N[C@@H](CO)C(N)=O)C(C)C)[C@@H](C)CC [Compound 106] (H-[NMeY][Aib]EGTFISDYSI[Aib]LDR[Aib]AA[Aib]K([AEEA-AEEA-γGlu-γGlu-C18 diacid])FVNWLLAQRPSSGAPPPS-NH2) |  |  | ≥ 30 | ≥ 15
CC[C@H](C)[C@H](NC(=O)[C@H](CO)NC(=O)[C@H](Cc1ccc(O)cc1)NC(=O)[C@H](CC(=O)O)NC(=O)[C@H](CO)NC(=O)[C@@H](NC(=O)[C@H](Cc1ccccc1)NC(=O)[C@@H](NC(=O)CNC(=O)[C@H](CCC(=O)O)NC(=O)C(C)(C)NC(=O)[C@@H](N)Cc1ccc(O)cc1)[C@@H](C)O)[C@@H](C)CC)C(=O)N[C@@H](C)C(=O)NC(C)(C)C(=O)N[C@@H](CC(=O)O)C(=O)N[C@@H](CCCCN)C(=O)N[C@@H](C)C(=O)N[C@@H](CCCCNC(=O)COCCOCCNC(=O)COCCOCCNC(=O)CC[C@H](NC(=O)CCCCCCCCCCCCCCCCC(=O)O)C(=O)O)C(=O)N[C@@H](CCC(N)=O)C(=O)N[C@@H](CCC(N)=O)C(=O)N[C@@H](CC(=O)O)C(=O)N[C@@H](Cc1ccccc1)C(=O)N[C@H](C(=O)N[C@@H](CCC(=O)O)C(=O)N[C@@H](Cc1c[nH]c2ccccc12)C(=O)N[C@@H](CC(C)C)C(=O)N[C@@H](CC(C)C)C(=O)N[C@@H](C)C(=O)N[C@@H](CCC(N)=O)C(=O)N[C@@H](CCCNC(=N)N)C(=O)NCC(=O)O)C(C)C [Compound 164] (H-Y[Aib]EGTFISDYSIA[Aib]DKAK([AEEA-AEEA-γGlu-C18 diacid])QQDFVEWLLAQRG-OH) | ≥ 15 | ≥ 30 |  | 
